The target in one assay is EZH2 (Homo sapiens, UniProt Q15910). As to the kind of experiment: EZH2 nuc BSA Brij 1.5 (IC50): rPRC2, biotinylated oligonucleosome substrate, 3H SAM FlashPlate. The class given is biochemical. On the procedure:
EZH2 Nuc BSA Brij 1.5 (IC50):
Assays were carried out by mixing rPRC2 together with biotinylated oligonucleosome substrates in the presence of the radio-labeled enzyme co-factor, S-adenosyl-L-methionine (^3H SAM) (Perkin Elmer) and monitoring the enzymatically mediated transfer of tritiated methyl groups from ^3H SAM to histone lysine residues. The amount of resulting tritiated methyl histone product was measured by first capturing the biotinylated oligonucleosomes in streptavidin (SAV) coated FlashPlates (Perkin Elmer), followed by a wash step to remove un-reacted ^3H SAM, and then counting on a TopCount NXT 384 well plate scintillation counter (Perkin Elmer). The final assay conditions for EZH2 were as follows: 50 mM Tris Buffer pH 8.5, 1 mM DTT, 69 μM Brij-35 detergent, 5.0 mM MgCl2, 0.1 mg/mL BSA, 0.2 μM ^3H SAM, 0.2 μM biotinylated oligonucleosomes, 3.6 μM H3K27me3 peptide and 2 nM EZH2.
Compound IC50 Measurements were Obtained as Follows:
Compounds were first dissolved in 100% DMSO as 10 mM stock solutions. Ten point dose response curves were generated by dispensing varying amounts of the 10 mM compound solution in 10 wells of the 384 well plate (Echo; Labcyte), pure DMSO was then used to backfill the wells to insure all wells have the same amount of DMSO. A 12.5 μL volume of the HMT enzyme, H3K27me3 peptide and oligonucleosome substrate in assay buffer was added to each well of the assay plate using a Multidrop Combi (ThermoFisher). Compounds were pre-incubated with the enzyme for 20 min, followed by initiation of the methyltransferase reaction by addition of 12.5 μL of ^3H SAM in assay buffer (final volume=25 μL). The final concentrations of compounds ranged from a top default concentration of 80 μM down to 0.16 μM in ten 2-fold dilution steps. Reactions were carried out for 60 minutes and quenched with 20 μL per well of 1.96 mM SAH, 50 mM Tris pH 8.5, 200 mM EDTA. Stopped reactions were transferred to SAV coated Flashplates (Perkin Elmer), incubated for 120 min, washed with a plate washer, and then read on the TopCount NXT (1.0 min/well) to measure the amount of methyl histone product formed during the reaction. The amount of methyl histone product was compared with the amount of product formed in the 0% and 100% inhibition control wells allowing the calculation of % Inhibition in the presence of the individual compounds at various concentrations. IC50's were computed using a 4 parameter fit non-linear curve fitting software package (XLFIT, part of the database package, ActivityBase (IDBS)) where the four parameters were IC50, Hill slope, pre-transitional baseline (0% INH), and post-transitional baseline (100% INH); with the latter two parameters being fixed to zero and 100%, respectively, by default.

The next assay has as its system H3K27me3 mark. In words: H3K27me3 Alpha Hela Assay (AlphaLISA). The class given is cell-based. The settings on record: Hela cells, read-out: EZH2 Cell H3K27me3 Alpha HeLa (EC50 K27me3). On the procedure: EC50 Measurements for Inhibitors in HeLa Cell Assays
H3K27me3 Alpha Hela Assay (AlphaLISA). Ten different doses of each test compound (in a series of 3-fold dilutions) were plated in duplicate 384-well tissue culture treated plates (Catalog #781080; Greiner Bio One; Monroe, N.C.). Hela cells grown in culture were trypsinized and counted using a Countess® cell counter (Catalog # C10281; Life Technologies, Grand Island, N.Y.). Cell were diluted to 67,000 cells per mL in 10% DMEM (Catalog #10569-010 Life Technologies, Grand Island, N.Y.) and 15 μL (1,000 cells) were plated into each well using the Biotek MicroFlo™ Select Dispenser (BioTek Instruments, Inc. Vermont, USA),) of the 384-well plate. Plates were incubated at 37° C./5% CO2 for 72 hrs. One of the duplicate plates was processed for HeLa assay and the other for viability.
To the plate processed for AlphaLISA was added 5 μL per well Cell-Histone Lysis buffer (1×) (Catalog # AL009F1 Perkin Elmer; Waltham, Mass.) and the plate was incubated at RT for 30 minutes on a plate shaker with low speed (Model#4625-Q Thermo Scientific; Waltham, Mass.). Then, 10 μL per well Histone Extraction buffer (catalog # AL009F2; Perkin Elmer; Waltham, Mass.) was added and the plate further incubated at RT for 20 min on plate shaker with low speed. To each well was then added 10 μL per well of a 5× mix of anti-K27me3 acceptor beads plus Biotinylated anti-Histone H3 (C-ter) Antibody (diluted to 3 nM final) (Catalog #AL118 Perkin Elmer; Waltham, Mass.). Dilution of the acceptor beads and then anti-Histone H3 was with 1× Histone Detection buffer (Catalog # AL009F3 Perkin Elmer; Waltham, Mass.) which was produced diluted from the 10× stock provided. The plate was sealed with an aluminum plate sealer and incubated at 23° C. for 60 min. We then added 10 μL 5× solution of Streptavidin Donor beads (Catalog #6760002 Perkin Elmer; Waltham, Mass.) (20 μg/mL final in 1× Histone Detection Buffer), sealed the plate with Aluminum plate sealer and incubated at 23° C. for 30 min. The plates were then read using an EnVision-Alpha Reader (model #2104 Perkin Elmer; Waltham, Mass.).
Data from both assays was analyzed using Assay Assistant (Constellation Pharmaceuticals In-house product) and Activity Base (IDBS Ltd, Surrey, UK) template. Data files were imported to Assay Assistant and assay conditions were specified. A unique Analysis ID was created and the data files exported to Activity Base. An analysis template was created on Activity Base to measure dose-dependent inhibition of H3K27me3 mark and cell viability respectively. Readout of DMSO wells were used to normalize the data. Resulting curves were fitted using Activity base software Model 205 (IDBS Ltd, Surrey, UK). The data was checked for quality, validated and integrated in excel format using SARview (IDBS Ltd, Surrey, UK).

Where [1] appears, read: EZH2 nuc BSA Brij 1.5 (IC50), 2 nM EZH2, 0.2 μM biotinylated oligonucleosomes, 0.2 μM 3H SAM, 3.6 μM H3K27me3 peptide.
[2] abbreviates: read-out: EZH2 nuc BSA Brij 1.5 (IC50); 2 nM EZH2, 0.2 μM biotinylated oligonucleosomes, 0.2 μM 3H SAM, 3.6 μM H3K27me3 peptide.

Like-named read-outs stand apart in the source and are kept apart here.

What is called IC50 is the concentration that gives 50% inhibition. One may read the EC50 as the concentration needed to bring the measured effect to its halfway point.

EZH2, sequence (Q15910 whole entry): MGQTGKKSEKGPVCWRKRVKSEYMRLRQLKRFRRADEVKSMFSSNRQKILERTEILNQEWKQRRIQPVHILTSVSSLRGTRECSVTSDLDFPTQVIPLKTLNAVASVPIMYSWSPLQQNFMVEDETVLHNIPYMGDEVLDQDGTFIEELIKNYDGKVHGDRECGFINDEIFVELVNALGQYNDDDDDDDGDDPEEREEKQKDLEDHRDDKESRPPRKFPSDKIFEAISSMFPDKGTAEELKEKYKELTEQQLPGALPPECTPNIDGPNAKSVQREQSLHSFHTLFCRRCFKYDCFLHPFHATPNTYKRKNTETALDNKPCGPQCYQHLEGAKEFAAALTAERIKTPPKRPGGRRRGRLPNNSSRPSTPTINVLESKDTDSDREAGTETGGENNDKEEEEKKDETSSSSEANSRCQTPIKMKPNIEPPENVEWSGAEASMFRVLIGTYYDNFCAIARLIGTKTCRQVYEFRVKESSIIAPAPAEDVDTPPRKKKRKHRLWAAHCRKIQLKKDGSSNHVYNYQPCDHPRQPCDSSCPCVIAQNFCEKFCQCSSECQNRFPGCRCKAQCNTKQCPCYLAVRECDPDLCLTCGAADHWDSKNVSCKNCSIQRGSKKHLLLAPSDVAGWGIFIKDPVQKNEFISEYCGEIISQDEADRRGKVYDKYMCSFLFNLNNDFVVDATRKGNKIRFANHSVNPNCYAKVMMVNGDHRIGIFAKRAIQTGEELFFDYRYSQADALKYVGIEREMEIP
EZH2, sequence (O75530 whole entry partner): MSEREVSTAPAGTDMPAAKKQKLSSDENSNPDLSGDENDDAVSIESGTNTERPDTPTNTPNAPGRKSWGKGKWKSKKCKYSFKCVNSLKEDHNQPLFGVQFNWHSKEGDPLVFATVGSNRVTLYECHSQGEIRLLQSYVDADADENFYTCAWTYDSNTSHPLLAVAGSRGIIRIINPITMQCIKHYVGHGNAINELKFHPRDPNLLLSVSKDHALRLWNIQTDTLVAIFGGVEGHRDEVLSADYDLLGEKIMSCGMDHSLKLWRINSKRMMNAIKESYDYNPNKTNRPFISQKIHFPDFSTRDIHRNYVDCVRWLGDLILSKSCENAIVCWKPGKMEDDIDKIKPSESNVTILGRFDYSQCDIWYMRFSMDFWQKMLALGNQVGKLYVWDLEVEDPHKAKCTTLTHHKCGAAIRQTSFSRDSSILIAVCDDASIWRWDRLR
EZH2, sequence (Q15022 whole entry partner): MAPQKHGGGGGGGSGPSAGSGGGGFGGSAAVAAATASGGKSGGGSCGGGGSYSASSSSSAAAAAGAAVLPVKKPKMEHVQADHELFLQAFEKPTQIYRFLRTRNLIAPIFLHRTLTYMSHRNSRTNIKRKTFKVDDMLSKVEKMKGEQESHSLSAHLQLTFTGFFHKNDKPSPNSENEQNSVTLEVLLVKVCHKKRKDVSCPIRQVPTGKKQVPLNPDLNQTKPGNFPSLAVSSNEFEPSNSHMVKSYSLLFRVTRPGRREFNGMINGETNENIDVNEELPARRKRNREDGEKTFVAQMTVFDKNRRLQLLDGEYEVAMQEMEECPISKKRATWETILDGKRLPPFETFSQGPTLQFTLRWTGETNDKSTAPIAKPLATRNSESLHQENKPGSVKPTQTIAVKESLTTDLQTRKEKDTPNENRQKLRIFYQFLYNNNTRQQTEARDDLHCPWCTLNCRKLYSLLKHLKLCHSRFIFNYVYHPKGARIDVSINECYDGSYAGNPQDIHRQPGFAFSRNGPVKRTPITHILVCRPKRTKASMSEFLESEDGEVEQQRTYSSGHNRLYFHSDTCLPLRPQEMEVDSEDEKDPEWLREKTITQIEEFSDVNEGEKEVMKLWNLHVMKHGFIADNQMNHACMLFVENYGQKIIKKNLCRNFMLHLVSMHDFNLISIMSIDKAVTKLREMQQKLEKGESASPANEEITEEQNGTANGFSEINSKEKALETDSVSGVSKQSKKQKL

`COc1cc(C)[nH]c(=O)c1CNC(=O)c1c(C)n(C(C)C2CCNc3ccccc32)c2ccccc12` (single isomer, unassigned) [Compound 1] displayed a 50% inhibitory concentration (IC50) on EZH2 (setting [1]) of less than 100 nM. For the same compound, in the assay on H3K27me3 mark (Homo sapiens, HeLa, 72 h), the EC50 is greater than 2000 nM.
`CCN1CCC(C(C)n2c(C)c(C(=O)NCc3c(OC)cc(C)[nH]c3=O)c3ccccc32)CC1C(F)(F)F` (single isomer, unassigned) [Compound 9, 1-(1-(1-ethyl-2-(trifluoromethyl)piperidin-4-yl)ethyl)-N-((4-methoxy-6-methyl-2-oxo-1,2-dihydropyridin-3-yl)methyl)-2-methyl-1H-indole-3-carboxamide] registered an IC50 on EZH2 (setting [1]) of less than 100 nM. The EC50 in the assay with H3K27me3 mark (72 hrs) is greater than 2000 nM.
Take `CCN1CCC(C(C)n2c(C)c(C(=O)NCc3c(OC)cc(C)[nH]c3=O)c3ccccc32)CC1C(F)(F)F` (single isomer, unassigned) [Compound 10, 1-(1-(1-ethyl-2-(trifluoromethyl)piperidin-4-yl)ethyl)-N-((4-methoxy-6-methyl-2-oxo-1,2-dihydropyridin-3-yl)methyl)-2-methyl-1H-indole-3-carboxamide]: on EZH2 (setting [2]), the IC50 is less than 100 nM. The EC50 in the assay on H3K27me3 mark (72 hrs) is less than 400 nM.
Take `COc1cc(C)[nH]c(=O)c1CNC(=O)c1c(C)n(C(C)C2CCNC(C(F)(F)F)C2)c2ccccc12` (single isomer, unassigned) [Compound 12, N-((4-methoxy-6-methyl-2-oxo-1,2-dihydropyridin-3-yl)methyl)-2-methyl-1-(1-(2-(trifluoromethyl)piperidin-4-yl)ethyl)-1H-indole-3-carboxamide]: the IC50 against EZH2 (setting [1]) was less than 100 nM.
As for `COc1cc(C)[nH]c(=O)c1CNC(=O)c1c(C)n(C(C)C2CCN(C)C(C(F)(F)F)C2)c2ccccc12` (single isomer, unassigned) [Compound 13, N-((4-methoxy-6-methyl-2-oxo-1,2-dihydropyridin-3-yl)methyl)-2-methyl-1-(1-(1-methyl-2-(trifluoromethyl)piperidin-4-yl)ethyl)-1H-indole-3-carboxamide], on EZH2 (setting [1]), the IC50 is less than 100 nM. In addition, in the assay on H3K27me3 mark (Homo sapiens, HeLa, 72 h), the EC50 fell in the range of 400 to 2000 nM.
Consider `Cc1cc(C)c(CNC(=O)c2c(C)n(C(C)C3CCNC(C(F)(F)F)C3)c3ccccc23)c(=O)[nH]1` (single isomer, unassigned) [Compound 16, N-((4,6-dimethyl-2-oxo-1,2-dihydropyridin-3-yl)methyl)-2-methyl-1-(1-(2-(trifluoromethyl)piperidin-4-yl)ethyl)-1H-indole-3-carboxamide], for which, at EZH2 (setting [1]), the IC50 is less than 100 nM.
At EZH2 (setting [1]), `COc1cc(C)[nH]c(=O)c1CNC(=O)c1c(C)n(C(C)C2CCNC(C(F)(F)F)C2)c2ccccc12` (single isomer, unassigned) [Compound 20, N-((4-methoxy-6-methyl-2-oxo-1,2-dihydropyridin-3-yl)methyl)-2-methyl-1-(1-(2-(trifluoromethyl)piperidin-4-yl)ethyl)-1H-indole-3-carboxamide] showed an IC50 of less than 100 nM. In addition, the EC50 with H3K27me3 mark (72 hrs) fell in the range of 400 to 2000 nM.
For `COc1cc(C)[nH]c(=O)c1CNC(=O)c1c(C)n(C(C)C2CCNC(C(F)(F)F)C2)c2ccccc12` (single isomer, unassigned) [Compound 22, N-((4-methoxy-6-methyl-2-oxo-1,2-dihydropyridin-3-yl)methyl)-2-methyl-1-(1-(2-(trifluoromethyl)piperidin-4-yl)ethyl)-1H-indole-3-carboxamide] the same measures were less than 100 nM and 400 to 2000 nM.
For `COc1cc(C)[nH]c(=O)c1CNC(=O)c1c(C)n(C(C)C2CCNC(C(F)(F)F)C2)c2ccccc12` (single isomer, unassigned) [Compound 23, N-((4-methoxy-6-methyl-2-oxo-1,2-dihydropyridin-3-yl)methyl)-2-methyl-1-(1-(2-(trifluoromethyl)piperidin-4-yl)ethyl)-1H-indole-3-carboxamide] the same measures were 100 to 1000 nM and greater than 2000 nM.
For `COc1cc(C)[nH]c(=O)c1CNC(=O)c1c(C)n(C(C)C2CCNC(c3ccc(F)cc3)C2)c2ccccc12` (single isomer, unassigned) [Compound 32, 1-(1-(2-(4-fluorophenyl)piperidin-4-yl)ethyl)-N-((4-methoxy-6-methyl-2-oxo-1,2-dihydropyridin-3-yl)methyl)-2-methyl-1H-indole-3-carboxamide], the IC50 on EZH2 (2 nM EZH2, 0.2 μM biotinylated oligonucleosomes, 0.2 μM 3H SAM, 3.6 μM H3K27me3 peptide; read-out: EZH2 nuc BSA Brij 1.5 (IC50)) is less than 100 nM. Further, the EC50 with H3K27me3 mark (72 hrs) was greater than 2000 nM.
As for `COc1cc(C)[nH]c(=O)c1CNC(=O)c1c(C)n(C(C)C2CCNC(C(F)F)C2)c2ccccc12` (single isomer, unassigned) [Compound 36, 1-(1-(2-(difluoromethyl)piperidin-4-yl)ethyl)-N-((4-methoxy-6-methyl-2-oxo-1,2-dihydropyridin-3-yl)methyl)-2-methyl-1H-indole-3-carboxamide], the IC50 at EZH2 (setting [1]) was less than 100 nM. Besides, the EC50 in the assay on H3K27me3 mark (72 hrs) is greater than 2000 nM.
For the compound `COc1cc(C)[nH]c(=O)c1CNC(=O)c1c(C)n(C(C)C2CCNC(C(F)F)C2)c2ccccc12` (single isomer, unassigned) [Compound 37, 1-(1-(2-(difluoromethyl)piperidin-4-yl)ethyl)-N-((4-methoxy-6-methyl-2-oxo-1,2-dihydropyridin-3-yl)methyl)-2-methyl-1H-indole-3-carboxamide], the IC50 at EZH2 (setting [2]) was less than 100 nM. In the assay with H3K27me3 mark (72 hrs), the EC50 lay within 400 to 2000 nM.
Take `COc1cc(C)[nH]c(=O)c1CNC(=O)c1c(C)n(C(C)C2CCN(C)c3ccccc32)c2ccccc12` (centres unmarked) [Compound 3, N-((4-methoxy-6-methyl-2-oxo-1,2-dihydropyridin-3-yl)methyl)-2-methyl-1-(1-(1-methyl-1,2,3,4-tetrahydroquinolin-4-yl)ethyl)-1H-indole-3-carboxamide]: the IC50 against EZH2 (setting [1]) was less than 100 nM.

The record behind these values is US20180037568A1, “MODULATORS OF METHYL MODIFYING ENZYMES, COMPOSITIONS AND USES THEREOF” (Constellation Pharmaceuticals, Inc., priority 2015, published 2018).
